The Deep4Chem optical property database
Each block holds one compound with its values, some of them ahead of it.

Assay: solvent given as SMILES

Structure (SMILES): O=S1(=O)C2=C(c3ccc(-c4ccc(N(c5ccccc5)c5ccccc5)cc4)cc31)C1(C3=C(c4ccccc41)S(=O)(=O)c1cc(-c4ccc(N(c5ccccc5)c5ccccc5)cc4)ccc13)c1ccccc12
emission maximum (in C1CCOC1): 599 nm
emission maximum (in CC#N): 665 nm
emission maximum (in CCCCCC): 485 nm
emission maximum (in Cc1ccccc1): 543 nm
emission maximum (in ClCCl): 624 nm

Structure (SMILES): N#Cc1cc(N2c3ccccc3Oc3ccccc32)c(N2c3ccccc3Oc3ccccc32)cc1C#N
emission maximum (in c1ccc2c(c1)c1ccccc1n2-c1ccc(-c2ccc(-n3c4ccccc4c4ccccc43)cc2)cc1): 612 nm

Structure (SMILES): CN(C)c1ccc(-c2cc(-c3ccc(C#N)cc3)nn2C)cc1
emission maximum (in C1CCCCC1): 363 nm
emission maximum (in CC#N): 595 nm
emission maximum (in CCOC(C)=O): 481 nm
emission maximum (in CCOCC): 429 nm
emission maximum (in CN(C)C=O): 590 nm
emission maximum (in Cc1ccccc1): 410 nm
emission maximum (in ClCCl): 499 nm

Structure (SMILES): C[C@]12SC(=O)C=C1c1nc(-c3ccc(O)cc3)[nH]c1C1=CC(=O)S[C@@]12C
emission maximum (in CC#N): 536 nm

Structure (SMILES): N#Cc1ccc2cc(C#N)c3ccc4ccccc4c3c2c1
emission maximum (in ClC(Cl)Cl): 420 nm

Structure (SMILES): COC(=O)CCC1=CC(C#Cc2ccc(OC)cc2)=[N+]2C1=Cc1c(CCC(=O)OC)cc(C#Cc3ccc(OC)cc3)n1[B-]2(F)F
emission maximum (in ClCCl): 682 nm

Structure (SMILES): C(#Cc1nc2ccccc2s1)c1ccc(N(c2ccccc2)c2ccccc2)cc1
emission maximum (in Cc1ccccc1): 437 nm

Structure (SMILES): CN1C(=CC2=C([O-])C(=Cc3sc4ccccc4[n+]3C)C2=C(C#N)C#N)Sc2ccccc21
emission maximum (in ClC(Cl)Cl): 723 nm

Structure (SMILES): COc1ccc2cc(/C=C/C3=CC(c4ccccc4)=[O+][B-](F)(F)O3)ccc2c1
emission maximum (in ClCCl): 566 nm

Structure (SMILES): CC1=CC(C)=[N+]2C1=C(c1ccc(I)cc1)c1c(C)cc(C)n1[B-]2(OC(C)C)OC(C)C
emission maximum (in ClC(Cl)Cl): 517.73 nm

Structure (SMILES): F[B-]1(F)n2c(c3cccc4cccc2c43)=Nc2cccc(Cl)[n+]21
emission maximum (in C1CCOC1): 503 nm
emission maximum (in CC#N): 502 nm
emission maximum (in CCCCCC): 498 nm
emission maximum (in Cc1ccccc1): 503 nm
emission maximum (in ClCCl): 526 nm

Structure (SMILES): CC1(C)c2ccccc2N(c2ccc(-c3nc([C@]45CC6CC(C[C@@H](C6)C4)C5)nc([C@]45C[C@H]6C[C@@H](C[C@H](C6)C4)C5)n3)cc2)c2ccccc21
emission maximum (in CC(C)(C)c1ccc(-n2c3ccc([Si](c4ccccc4)(c4ccccc4)c4ccccc4)cc3c3cc([Si](c4ccccc4)(c4ccccc4)c4ccccc4)ccc32)cc1): 450 nm
emission maximum (in Cc1ccccc1): 469.63 nm

Structure (SMILES): O=S(=O)(/N=c1\oc2cccc3c4c(-c5ccccc5)oc5cccc(c(c1-c1ccccc1)c23)c54)C(F)(F)F
emission maximum (in CCCCCC): 535 nm
emission maximum (in CO): 582 nm
emission maximum (in CS(C)=O): 596 nm
emission maximum (in ClC(Cl)Cl): 558 nm
emission maximum (in ClCCl): 569 nm
emission maximum (in O): 601 nm

Structure (SMILES): CCCCCCCCC1(CCCCCCCC)c2cc(-c3ccc(C(F)(F)F)cc3)ccc2-c2ccc(N(c3ccc(-n4c5ccccc5c5ccccc54)cc3)c3ccc4c(c3)C(CCCCCCCC)(CCCCCCCC)c3cc(-c5ccc(C(F)(F)F)cc5)ccc3-4)cc21
emission maximum (in C1CCOC1): 455 nm
emission maximum (in C1COCCO1): 434 nm
emission maximum (in CC#N): 495 nm
emission maximum (in CC(C)=O): 477 nm
emission maximum (in CCCCCC): 416 nm
emission maximum (in CCCCOCCCC): 425 nm
emission maximum (in CCN(CC)CC): 423 nm
emission maximum (in CCOC(C)=O): 450 nm
emission maximum (in CCOCC): 432 nm
emission maximum (in CN(C)C=O): 493 nm
emission maximum (in CS(C)=O): 486 nm
emission maximum (in Cc1ccccc1): 427 nm
emission maximum (in ClC(Cl)Cl): 445 nm
emission maximum (in ClCCl): 465 nm
emission maximum (in c1ccccc1): 428 nm

Structure (SMILES): CCNc1ccc2c(c1)C(C)(C)C(=O)C=C2
emission maximum (in O): 541 nm

Structure (SMILES): Cc1cc(-c2ccccc2)nc2c1ccc1nc(-c3ccccc3)cn12
emission maximum (in CC#N): 458 nm
emission maximum (in CCCCOC(C)=O): 449 nm
emission maximum (in CCOC(C)=O): 454 nm
emission maximum (in CO): 450 nm
emission maximum (in ClC(Cl)Cl): 448 nm
emission maximum (in ClCCl): 450 nm
emission maximum (in c1ccccc1): 451 nm

Structure (SMILES): C/C(=N\Nc1ccc(C#N)cc1)c1ccccn1
emission maximum (in CC#N): 463 nm
emission maximum (in CCCCCC): 452 nm
emission maximum (in CO): 482 nm
emission maximum (in CS(C)=O): 475 nm
emission maximum (in ClC(Cl)Cl): 460 nm

Structure (SMILES): FC(F)(F)c1cc2n(n1)[B-]1(c3ccccc3Oc3ccccc31)[n+]1ccc3ccccc3c1-2
emission maximum (in C1CCCCC1): 473 nm
emission maximum (in Cc1ccccc1): 517 nm
emission maximum (in ClCCl): 543 nm

Structure (SMILES): COC(=O)c1cc2c(cc3ccc4cccc5ccc2c3c45)[nH]1
emission maximum (in C1CCOC1): 404 nm

Structure (SMILES): FC(F)(F)c1ccc(-c2c3cccc4c5cccc6c(-c7ccc(C(F)(F)F)cc7)c7cccc8c9cccc2c9c(c34)c(c65)c78)cc1
emission maximum (in Cc1ccccc1): 699 nm

Structure (SMILES): COc1ccc2c(CC(=O)NN)coc2c1
emission maximum (in C1CCOC1): 381 nm
emission maximum (in CC#N): 376 nm
emission maximum (in CC(C)=O): 396 nm
emission maximum (in CCCCO): 384 nm
emission maximum (in CCCO): 396 nm
emission maximum (in CCO): 374 nm
emission maximum (in CCOC(C)=O): 368 nm
emission maximum (in CN(C)C=O): 378 nm
emission maximum (in CO): 378 nm
emission maximum (in ClCCl): 402 nm

Structure (SMILES): CN(C)c1ccc(C(=Cc2ccc(/C=C(\C#N)c3ccccc3)cc2)c2ccc(N(C)C)cc2)cc1
emission maximum (in C1CCOC1): 616 nm

Structure (SMILES): CCCCCCCCCCC1(CCCCCCCCCC)c2cc(-c3nc4ccccc4s3)ccc2-c2ccc(N3C(=O)c4ccc5c6ccc7c8c(ccc(c9ccc(c4c59)C3=O)c86)C(=O)N(c3ccc4c(c3)C(CCCCCCCCCC)(CCCCCCCCCC)c3cc(-c5nc6ccccc6s5)ccc3-4)C7=O)cc21
emission maximum (in Cc1ccccc1): 536 nm
emission maximum (in ClCCl): 533 nm

Structure (SMILES): CC(C)CCC[C@@H](C)[C@H]1CC[C@H]2[C@@H]3CC=C4C[C@@H](OC(=O)Oc5cc(/C=C/c6ccc(N(C)C)cc6)ccc5[N+](=O)[O-])CC[C@]4(C)[C@H]3CC[C@]12C
emission maximum (in C1CCCCC1): 503 nm
emission maximum (in C1COCCO1): 573 nm
emission maximum (in CCCCCCC): 503 nm
emission maximum (in Cc1ccccc1): 554 nm

Second part, the compound after the results:

emission maximum (in CC#N): 579 nm
emission maximum (in CCO): 571 nm
emission maximum (in CN(C)C=O): 588 nm
emission maximum (in O): 580 nm
Structure (SMILES): CCN(CC)c1ccc2c(-c3ccccc3C(=O)[O-])c3ccc(=[N+](CC)CC)cc-3oc2c1

emission maximum (in CC#N): 461 nm
Structure (SMILES): Cc1ccc2nc3c(=O)[nH]c(=O)[nH]c3nc2c1C

emission maximum (in CO): 798 nm
Structure (SMILES): CC1(C)C(/C=C/C2=C(Oc3ccc(CCN=C=S)cc3Br)C(=C/C=C3/N(CCCS(=O)(=O)[O-])c4ccccc4C3(C)C)/CCC2)=[N+](CCCS(=O)(=O)[O-])c2ccccc21

emission maximum (in ClCCl): 460 nm
emission maximum (in c1cc(-n2c3ccccc3c3ccccc32)cc(-n2c3ccccc3c3ccccc32)c1): 448 nm
Structure (SMILES): O=S1(=O)c2ccccc2C2(c3cc(-c4ccc(N(c5ccccc5)c5ccccc5)cc4)ccc3-c3ccc(-c4ccc(N(c5ccccc5)c5ccccc5)cc4)cc32)c2ccccc21

emission maximum (in CCO): 501 nm
emission maximum (in ClCCl): 502 nm
emission maximum (in O): 596 nm
Structure (SMILES): N#CC(C#N)=Cc1ccc(-c2ccc(-c3nc4ccccc4s3)c(O)c2)o1

emission maximum (in C1CCCCC1): 407 nm
emission maximum (in CC#N): 450 nm
emission maximum (in CCO): 473 nm
emission maximum (in O): 489 nm
Structure (SMILES): Cc1cc(=O)oc2c3c4c(cc12)CCCN4CCC3

emission maximum (in CC#N): 627 nm
Structure (SMILES): Cc1ccc(S(=O)(=O)Nc2c(/C=C/c3ccccc3)sc(-c3ccc(N(C)C)cc3)c2-c2ccsc2)cc1

emission maximum (in CC#N): 456 nm
emission maximum (in CCCCCC): 385 nm
Structure (SMILES): C(=C\c1cccnc1)/c1ccc(Nc2ccccc2)cc1

emission maximum (in CC#N): 440 nm
Structure (SMILES): Fc1nc(F)c(F)c(C#Cc2nccnc2C#Cc2c(F)c(F)nc(F)c2F)c1F

emission maximum (in ClCCl): 495 nm
Structure (SMILES): COC(=O)C1=C(C(=O)OC)C2(c3cc([N+](=O)[O-])ccc3-c3ccc([N+](=O)[O-])cc32)C2(/C=C/c3ccccc3)c3cc(OC)c(OC)cc3CCN12 (centres undefined)

emission maximum (in ClCCl): 541 nm
Structure (SMILES): C(#Cc1c2ccccc2c(-c2ccccc2)c2cc3ccccc3cc12)c1ccccc1

emission maximum (in ClCCl): 470 nm
Structure (SMILES): CCCCCCCCOc1cc(/C=C/c2ccncc2)c(OCCCCCCCC)cc1/C=C/c1ccncc1

emission maximum (in CO): 542 nm
Structure (SMILES): C(=C\c1cc[n+]2ccc(/C=C/c3cc[nH]c3)cc2c1)/c1cc[nH]c1

emission maximum (in c1ccccc1): 487 nm
Structure (SMILES): O=c1oc2c(ccc3cc(O)ccc32)nc1-c1ccccc1

emission maximum (in CC#N): 464 nm
Structure (SMILES): COc1ccc2cc(/C=C/c3ccccc3)c(=O)oc2c1

emission maximum (in C1CCOC1): 455 nm
Structure (SMILES): COc1ccc(-c2cnc3nn4ccccc4c3n2)cc1

emission maximum (in CO): 774 nm
emission maximum (in O): 771 nm
Structure (SMILES): CC1(C)C(/C=C/C=C/C=C/C=C2/N(CCCCCC(=O)O)c3ccc(S(=O)(=O)[O-])cc3C2(C)C)=[N+](CCCCS(=O)(=O)[O-])c2ccc(S(=O)(=O)[O-])cc21

emission maximum (in CCCCCC): 346 nm
emission maximum (in CO): 376 nm
emission maximum (in ClCCl): 377 nm
Structure (SMILES): C[Si](C)(C)c1ccc2ccc3cccc4ccc1c2c34

emission maximum (in CC#N): 412 nm
emission maximum (in CCCCCC): 396 nm
emission maximum (in CO): 418 nm
emission maximum (in CS(C)=O): 425 nm
emission maximum (in ClC(Cl)Cl): 414 nm
Structure (SMILES): CCC1=C(C)C2=Cc3cscc3B(O)N2C1=O

emission maximum (in CO): 565 nm
Structure (SMILES): CCOC(=O)CCCCCn1c2ccc(C)cc2c(=O)c2cc3c(cc21)c(=O)c1cc(C)ccc1n3CCCCCC(=O)OCC

emission maximum (in C1CCCCC1): 327 nm
emission maximum (in CC#N): 330 nm
Structure (SMILES): C=Cc1cccc(OC)c1

emission maximum (in ClC(Cl)Cl): 565 nm
Structure (SMILES): CCCCCCN1C(=O)c2cccc3cc(/N=C\c4ccc(N(c5ccccc5)c5ccccc5)cc4)cc(c23)C1=O

emission maximum (in C1CCOC1): 504.66 nm
Structure (SMILES): CC(C)(C)c1ccc(-c2nc(-c3ccc(C(C)(C)C)cc3)nc(-c3cc(C#N)c(-n4c5ccccc5c5c6oc7ccccc7c6ccc54)c(C#N)c3)n2)cc1

emission maximum (in ClCCl): 510 nm
Structure (SMILES): CN(C)c1cc(-c2ccc(C#Cc3cc[n+](C)cc3)cc2)cc2ccccc12

emission maximum (in ClCCl): 414 nm
Structure (SMILES): O=C1c2cc3ccccc3cc2C2=Nc3cccc[n+]3[B-](F)(F)N12

emission maximum (in ClCCl): 660 nm
Structure (SMILES): CC(C)[Si](C#Cc1c2cc3ccccc3cc2c(C#Cc2ccc(F)cc2)c2cc3ccccc3cc12)(C(C)C)C(C)C

emission maximum (in ClCCl): 469 nm
Structure (SMILES): Fc1ccc(-c2cccc3ncc(-c4ccccc4)n23)cc1

emission maximum (in ClC(Cl)Cl): 594 nm
Structure (SMILES): CCOC(CN1C(=O)C2=C(c3cc4cc(C(C)(C)C)cc(C(C)(C)C)c4o3)N(CC(OCC)OCC)C(=O)C2=C1c1cc2cc(C(C)(C)C)cc(C(C)(C)C)c2o1)OCC
